Experimental data taken from US20240299376A1, “METHOD OF TREATING A CONDITION USING A […] EFFECTIVE DOSE OF 1-(1-OXO-1,2-DIHYDROISOQUINOLIN-5-YL)-5-(TRIFLUOROMETHYL)-N-(2-(TRIFLUOROMETHYL)PYRIDIN-4-YL)-1H-PYRAZOLE-4-CARBOXAMIDE” (Janssen Pharmaceutica NV, priority 2021, published 2024).
Where two headings read alike, the source gives them in different places.

Assays:
Single IV dose plasma PK = type: in vivo, mouse
Experimental: Single intravenous (IV) dose PK was conducted in mice (two strains), rats, monkeys, and dogs at a dose of 1 mg/kg in 70% PEG400 (PEG400/water 70:30) by bolus injection. The time course for plasma sample was optimized to fully characterize the disposition profile in each species. PK analysis was by non-compartmental method.

[1] = Serum and tumor levels after multiple oral doses in male OCI-LY3 tumor-bearing NSG mice; type: in vivo; details: mean (SD); for concentration at 7 h / concentration at 12 h / concentration at 4 h / concentration at 24 h / Kp at 12 h / Kp at 24 h: male, NSG, mouse; for concentration at 7 h: 7 h post dose; for Kp at 12 h: Day 5, 12 h post dose, read-out: Tumor: serum ratio; for Kp at 24 h: read-out: Tumor:serum ratio
Experimental: Serum samples were collected at 7 and 12 hours post dose and tumor samples were collected 12 hours post last dose from the twice-daily-treated animals. From once-daily-treated animals, serum samples were collected at 4, 12, and 24 hours post dose and tumor samples were collected at 24 hours post last dose.

[2] = tested on: Rec1 (Ibrutinib sensitive MCL); test: Anti-proliferative activity, DLBCL cell line panel; type: cell-based; details: Homo sapiens, Rec1, 192 h; antiproliferation after 8 days of treatment
[3] = tested on: IL-6 secretion by OCI-LY3 ABC-DLBCL cells; test: IL-6 secretion assay (MesoScale Discovery); type: cell-based; details: Homo sapiens; supernatants of OCI-LY3 cells, 16 independent experiments
Experimental: NF-κB signaling regulates the secretion of multiple cytokines, including interleukin (IL)-6 and IL-10. Libermann T A et al. Mol Cell Biol. 1990; 10(6):3155-3162; and Cao S, et al. J Biol Chem. 2006; 281(36):26041-26050. Secretion of the cytokines IL-6 and IL-10 by OCI-LY3 ABC-DLBCL cells was measured using a MesoScale Discovery (MSD) assay.

[4] = Serum concentration after 28 days of oral dosing in male OCI-LY3 tumor-bearing NSG mice; type: in vivo; details: mouse, mean; for concentration at 1 h: 1 h post last dose; for concentration at 2 h: 2 h post last dose; for concentration at 4 h: 4 h post last dose; for concentration at 8 h: 8 h post last dose; for concentration at 12 h: 12 h post last dose; for concentration at 0.25 h: 0.25 h post last dose
Experimental: For study 3, animals were randomly assigned into treatment groups, when the OCI-LY3 mean tumor volume was 164 mm^3 (Day 32 post-tumor cell implantation). Treatment was initiated on the day of randomization (Day 32). After 28 days of treatment on Day 60, serum was collected at 2, 4, and 12 hours post last dose for the bid treated groups or 2, 4 and 24 hours post last dose for qd treated groups in cohorts of 5 mice. Blood was collected from the retro-orbital sinus and submitted for bioanalytical analysis.
Serum samples were collected at 1, 2, 4, 8, and 12 hours post dose (for twice-daily-treated animals) or 24 hours (for once-daily-treated animals).

U2932 (A20/TAK1 mut) = test: Anti-proliferative activity, DLBCL cell line panel; type: cell-based; details: Homo sapiens, U2932, 192 h; antiproliferation after 8 days of treatment
[5] = male, plasma, Mouse, CD-1, 3M, 1 mg/kg IV in 70% PEG400, mean
[6] = male, plasma, Mouse, NSG, 3M, 1 mg/kg IV in 70% PEG400, mean

SMILES: O=C(Nc1ccnc(C(F)(F)F)c1)c1cnn(-c2cccc3c(=O)[nH]ccc23)c1C(F)(F)F [Compound A, 1-(1-oxo-1,2-dihydroisoquinolin-5-yl)-5-(trifluoromethyl)-N-[2-(trifluoromethyl)pyridin-4-yl]-1H-pyrazole-4-carboxamide]
- Vd (Single IV dose plasma PK; CD-1 and NSG (mouse), Sprague-Dawley (rat), beagle (dog), plasma, similar across all species (mouse, rat, monkey, dog), IV 1 mg/kg, read-out: apparent volume of distribution at steady state): ~1 L/kg
- AUC(0-inf) (Single IV dose plasma PK; [5]): 12200 ng·h/mL
- C0 (Single IV dose plasma PK; [5]): 940 ng/mL
- clearance (Single IV dose plasma PK; [5]): 1.3 mL/min/kg
- Vd (Single IV dose plasma PK; male, plasma, Mouse, CD-1, 3M, 1 mg/kg IV in 70% PEG400, mean, read-out: Vdss): 1.4 L/kg
- AUC(0-inf) (Single IV dose plasma PK; [6]): 5490 ng·h/mL
- C0 (Single IV dose plasma PK; [6]): 1130 ng/mL
- clearance (Single IV dose plasma PK; [6]): 3.04 mL/min/kg
- half-life (Single IV dose plasma PK; [6]): 5.28 h
- Vd (Single IV dose plasma PK; male, plasma, Mouse, NSG, 3M, 1 mg/kg IV in 70% PEG400, mean, read-out: Vdss): 1.23 L/kg
- CL as fraction of liver blood flow (LBF) (Single IV dose plasma PK; mouse, LBF 90 mL/min/kg): 1.4%
- Serum concentration ([1]; 10 mg/kg twice daily PO, Day 5 eight doses given, 12 h post dose (trough)): 2,202 (313) ng/ml
- concentration at 7 h ([1]; serum, oral, 10 mg/kg, 10 mg/kg twice daily PO, Day 1 following first dose): 3260 ng/mL
- concentration at 12 h ([1]; serum, oral, 10 mg/kg, 10 mg/kg twice daily PO, Day 1 following first dose, 12 h post dose, read-out: Serum concentration): 2440 ng/mL
- concentration at 7 h ([1]; serum, oral, 10 mg/kg, 10 mg/kg twice daily PO, Day 4 seven doses given): 3760 ng/mL
- concentration at 12 h ([1]; serum, oral, 10 mg/kg, 10 mg/kg twice daily PO, Day 5 eight doses given, 12 h post dose (trough), read-out: Serum concentration): 2200 ng/mL
- concentration at 7 h ([1]; serum, oral, 30 mg/kg, 30 mg/kg twice daily PO, Day 1 following first dose): 9970 ng/mL
- concentration at 12 h ([1]; serum, oral, 30 mg/kg, 30 mg/kg twice daily PO, Day 1 following first dose, 12 h post dose, read-out: Serum concentration): 9000 ng/mL
- concentration at 7 h ([1]; serum, oral, 30 mg/kg, 30 mg/kg twice daily PO, Day 4 seven doses given): 7420 ng/mL
- concentration at 12 h ([1]; serum, oral, 30 mg/kg, 30 mg/kg twice daily PO, Day 5 eight doses given, 12 h post dose, read-out: Serum concentration): 3890 ng/mL
- concentration at 7 h ([1]; serum, oral, 100 mg/kg, 100 mg/kg twice daily PO, Day 1 following first dose): 16200 ng/mL
- concentration at 12 h ([1]; serum, oral, 100 mg/kg, 100 mg/kg twice daily PO, Day 1 following first dose, 12 h post dose, read-out: Serum concentration): 13300 ng/mL
- concentration at 12 h ([1]; serum, oral, 100 mg/kg, 100 mg/kg twice daily PO, Day 5 eight doses given, 12 h post dose, read-out: Serum concentration): 6910 ng/mL
- concentration at 4 h ([1]; serum, oral, once daily PO, dose not printed in Table 8 (first group; b301: 60 and 100 mg/kg), Day 1, 4 h post dose): 15000 ng/mL
- concentration at 4 h ([1]; serum, oral, once daily PO, dose not printed in Table 8 (second group; b301: 60 and 100 mg/kg), Day 1, 4 h post dose): 18100 ng/mL
- concentration at 24 h ([1]; serum, po, once daily PO, dose not given (first group), Day 1, 24 h post dose, read-out: Serum concentration): 2060 ng/mL
- concentration at 4 h ([1]; serum, po, once daily PO, dose not given (first group), Day 4, 4 h post dose): 9850 ng/mL
- concentration at 12 h ([1]; serum, po, once daily PO, dose not given (first group), Day 4, 12 h post dose, read-out: Serum concentration): 8680 ng/mL
- concentration at 24 h ([1]; serum, po, once daily PO, dose not given (first group), Day 4, 24 h post dose, read-out: Serum concentration): 1380 ng/mL
- concentration at 24 h ([1]; serum, po, once daily PO, dose not given (second group), Day 1, 24 h post dose, read-out: Serum concentration): 1970 ng/mL
- concentration at 4 h ([1]; serum, po, once daily PO, dose not given (second group), Day 4, 4 h post dose): 12600 ng/mL
- concentration at 12 h ([1]; serum, po, once daily PO, dose not given (second group), Day 4, 12 h post dose, read-out: Serum concentration): 11000 ng/mL
- concentration at 24 h ([1]; serum, po, once daily PO, dose not given (second group), Day 4, 24 h post dose, read-out: Serum concentration): 2800 ng/mL
- Kp at 12 h ([1]; tumor and serum, 10 mg/kg twice daily PO): 1
- Kp at 12 h ([1]; tumor and serum, 30 mg/kg twice daily PO): 1.3
- Kp at 12 h ([1]; tumor and serum, 100 mg/kg twice daily PO): 1.3
- Kp at 24 h ([1]; tumor and serum, once daily PO, dose not given (first group), Day 4, 24 h post dose): 1.9
- concentration at 12 h ([1]; tumor, oral, 10 mg/kg, 10 mg/kg twice daily PO, Day 5 eight doses given, 12 h post dose, read-out: Tumor concentration): 2160 ng/g
- concentration at 12 h ([1]; tumor, oral, 30 mg/kg, 30 mg/kg twice daily PO, Day 5 eight doses given, 12 h post dose, read-out: Tumor concentration): 5050 ng/g
- concentration at 12 h ([1]; tumor, oral, 100 mg/kg, 100 mg/kg twice daily PO, Day 5 eight doses given, 12 h post dose, read-out: Tumor concentration): 8830 ng/g
- concentration at 24 h ([1]; tumor, po, once daily PO, dose not given (first group), Day 4, 24 h post dose, read-out: Tumor concentration): 2460 ng/g
- concentration at 24 h ([1]; tumor, po, once daily PO, dose not given (second group), Day 4, 24 h post dose, read-out: Tumor concentration): 4300 ng/g
- Kp at 24 h ([1]; tumor/serum, once daily PO, dose not given (second group), Day 4, 24 h post dose): 1.6
- IC50 [2]: 1170 nM
- IC50 [3]: 114 ± 41 nM
- concentration at 1 h ([4]; 1 mg/kg BID PO 28 days): 550 ng/mL
- concentration at 2 h ([4]; 1 mg/kg BID PO 28 days): 449 ng/mL
- concentration at 4 h ([4]; 1 mg/kg BID PO 28 days): 526 ng/mL
- concentration at 8 h ([4]; 1 mg/kg BID PO 28 days): 721 ng/mL
- concentration at 12 h ([4]; 1 mg/kg BID PO 28 days): 307 ng/mL
- concentration at 0.25 h ([4]; 3 mg/kg BID PO 28 days): 1020 ng/mL
- concentration at 1 h ([4]; 3 mg/kg BID PO 28 days, N = 2): 1940 ng/mL
- concentration at 2 h ([4]; 3 mg/kg BID PO 28 days): 1560 ng/mL
- concentration at 4 h ([4]; 3 mg/kg BID PO 28 days): 1150 ng/mL
- concentration at 8 h ([4]; 3 mg/kg BID PO 28 days, N = 2): 2680 ng/mL
- concentration at 12 h ([4]; 3 mg/kg BID PO 28 days): 1020 ng/mL
- concentration at 0.25 h ([4]; 10 mg/kg BID PO 28 days): 4050 ng/mL
- concentration at 1 h ([4]; 10 mg/kg BID PO 28 days): 5080 ng/mL
- concentration at 2 h ([4]; 10 mg/kg BID PO 28 days): 4600 ng/mL
- concentration at 4 h ([4]; 10 mg/kg BID PO 28 days): 6250 ng/mL
- concentration at 8 h ([4]; 10 mg/kg BID PO 28 days): 5500 ng/mL
- concentration at 12 h ([4]; 10 mg/kg BID PO 28 days): 4170 ng/mL
- concentration at 0.25 h ([4]; 30 mg/kg BID PO 28 days): 5970 ng/mL
- concentration at 1 h ([4]; 30 mg/kg BID PO 28 days): 11400 ng/mL
- concentration at 2 h ([4]; 30 mg/kg BID PO 28 days): 12300 ng/mL
- concentration at 4 h ([4]; 30 mg/kg BID PO 28 days): 10400 ng/mL
- concentration at 8 h ([4]; 30 mg/kg BID PO 28 days): 14700 ng/mL
- concentration at 12 h ([4]; 30 mg/kg BID PO 28 days): 9000 ng/mL
- concentration at 1 h ([4]; 60 mg/kg QD PO 28 days): 9270 ng/mL
- concentration at 2 h ([4]; 60 mg/kg QD PO 28 days): 16000 ng/mL
- concentration at 4 h ([4]; 60 mg/kg QD PO 28 days): 11400 ng/mL
- concentration at 24 h ([4]; 60 mg/kg QD PO 28 days, 24 h post last dose): 2510 ng/mL
- concentration at 0.25 h ([4]; 100 mg/kg BID PO 28 days): 16500 ng/mL
- concentration at 1 h ([4]; 100 mg/kg BID PO 28 days): 21200 ng/mL
- concentration at 2 h ([4]; 100 mg/kg BID PO 28 days): 21600 ng/mL
- concentration at 4 h ([4]; 100 mg/kg BID PO 28 days): 12800 ng/mL
- concentration at 8 h ([4]; 100 mg/kg BID PO 28 days): 20500 ng/mL
- concentration at 12 h ([4]; 100 mg/kg BID PO 28 days): 10300 ng/mL
- IC50 (U2932 (A20/TAK1 mut)): 3900 nM
